# Laboratory results published in patent publication US10927096B2, “Ester substituted ion channel blockers and methods for use” (Nocion Therapeutics, Inc., priority 2019, dated 2021).
# Target: T1, NaV1.7 (Homo sapiens, UniProt Q15858)
# T1 construct: expressed in transfected cells; host or cells: HEK293, tetracycline-inducible
# Test: Automated patch clamp (Qube 384), external block of NaV1.7 in HEK293 cells
# Assay type: cell-based
# Details: compound in external solution, read-out: NaV1.7 Extracellular Inhibition
# Protocol: NaV1.7 was expressed in HEK293 cells upon induction with tetracycline. Cells were cultured in DMEM containing 10% dialyzed Fetal Bovine Serum (VWR, Radnor, Pa.), 1% Glutamax (VWR, Radnor, Pa.), 1% Penicillin-Streptomycin (VWR, Radnor, Pa.), 100 mg/L Hygromycin (Thermo Fisher Scientific, Waltham, Mass. and 5 mg/L Blasticidin (Alfa Aesar, Haverhill, Mass.). Cells were grown and maintained at 37° C. in a humidified environment containing 10% CO2 in air. Cells were detached from the culture flask for passage and harvested using 0.05% Trypsin-EDTA (Thermo Fisher Scientific, Waltham, Mass.). To induce NaV1.7, cells were induced with tetracycline (0.1-1 μg/mL, IBI Scientific, Peosta, Iowa) the day before recording.
# Before experiments, cells were washed with DPBS (VWR, Radnor, Pa.), digested with Detachin (VWR Radnor, Pa.) and then triturated 10 times in CHO Serum-Free Media (VWR Radnor, Pa.) to resuspend the cells and to break apart cell aggregates. Cells were counted and the final concentration was set at 2-5 million cells per mL.
# The intracellular solution contained the following: 140 mM CsF, 1 mM/5 mM EGTA/CsOH, 10 mM HEPES, 10 mM NaCl, adjusted to pH 7.3 with CsOH, and osmolality to 320 with sucrose. The external solution contained the following: 145 mM NaCl, 4 mM KCl, 1 mM MgCl2, 2 mM CaCl2, 10 mM HEPES, 10 mM Glucose, adjusted to pH 7.4 with CsOH and osmolality to 305 with sucrose. All chemicals are from Sigma-Aldrich, St. Louis, Mo. In order to test the degree of internal block by test compounds, the compounds were dissolved in internal solution at the indicated test concentration. […] In order to test the degree of external block by test compounds the compounds were dissolved in external solution at the indicated test concentration.
# Automated Patch Clamps were performed on Qube 384 (Sophion Bioscience, Woburn Mass.) with multihole Qchips at a temperature setting of 22 degrees. The whole cells configuration was formed with default Qube seal and break-in parameter. The membrane potential was held at −100 mV before the voltage protocol began. Two voltage protocols were followed.
# Step 1: Cells were held at −100 mV with a depolarized pulse to −20 mV for 10 ms, the interval was set at 5 s. Currents were corrected by default leak subtraction from every pulse. The duration was set at 5 mins.
# Step 2: Cells were held at −100 mV with a depolarized pulse to −20 mV for 10 ms. The frequency was 5 Hz. Currents were corrected by leak subtraction calculated before step 2. The duration was set at 4 mins.
# After Step 2, the external solution was changed with solutions containing test compounds. Qchips were held at −100 mV without pulsing. The total solution switching time was 8 minutes. After the external solution exchange, cells were recorded using the same procedure as step 2 for 10 minutes.
# Data analysis was performed by Sophion Analyzer. Data were corrected with control cells (Non-Drug). The IC50 data were plotted with DR-plots/Hill function (a dose-response plot with a Hill fit).
# Representative examples of the invention were tested for extracellular inhibition of NaV 1.7 in the automated patch clamp assay. Activity Range is reported as IC50: “++++” (<1 μM), “+++” (1-10 μM), “++” (10-30 μM) or “+” (>30 μM).
# T1 sequence (Q15858 whole entry): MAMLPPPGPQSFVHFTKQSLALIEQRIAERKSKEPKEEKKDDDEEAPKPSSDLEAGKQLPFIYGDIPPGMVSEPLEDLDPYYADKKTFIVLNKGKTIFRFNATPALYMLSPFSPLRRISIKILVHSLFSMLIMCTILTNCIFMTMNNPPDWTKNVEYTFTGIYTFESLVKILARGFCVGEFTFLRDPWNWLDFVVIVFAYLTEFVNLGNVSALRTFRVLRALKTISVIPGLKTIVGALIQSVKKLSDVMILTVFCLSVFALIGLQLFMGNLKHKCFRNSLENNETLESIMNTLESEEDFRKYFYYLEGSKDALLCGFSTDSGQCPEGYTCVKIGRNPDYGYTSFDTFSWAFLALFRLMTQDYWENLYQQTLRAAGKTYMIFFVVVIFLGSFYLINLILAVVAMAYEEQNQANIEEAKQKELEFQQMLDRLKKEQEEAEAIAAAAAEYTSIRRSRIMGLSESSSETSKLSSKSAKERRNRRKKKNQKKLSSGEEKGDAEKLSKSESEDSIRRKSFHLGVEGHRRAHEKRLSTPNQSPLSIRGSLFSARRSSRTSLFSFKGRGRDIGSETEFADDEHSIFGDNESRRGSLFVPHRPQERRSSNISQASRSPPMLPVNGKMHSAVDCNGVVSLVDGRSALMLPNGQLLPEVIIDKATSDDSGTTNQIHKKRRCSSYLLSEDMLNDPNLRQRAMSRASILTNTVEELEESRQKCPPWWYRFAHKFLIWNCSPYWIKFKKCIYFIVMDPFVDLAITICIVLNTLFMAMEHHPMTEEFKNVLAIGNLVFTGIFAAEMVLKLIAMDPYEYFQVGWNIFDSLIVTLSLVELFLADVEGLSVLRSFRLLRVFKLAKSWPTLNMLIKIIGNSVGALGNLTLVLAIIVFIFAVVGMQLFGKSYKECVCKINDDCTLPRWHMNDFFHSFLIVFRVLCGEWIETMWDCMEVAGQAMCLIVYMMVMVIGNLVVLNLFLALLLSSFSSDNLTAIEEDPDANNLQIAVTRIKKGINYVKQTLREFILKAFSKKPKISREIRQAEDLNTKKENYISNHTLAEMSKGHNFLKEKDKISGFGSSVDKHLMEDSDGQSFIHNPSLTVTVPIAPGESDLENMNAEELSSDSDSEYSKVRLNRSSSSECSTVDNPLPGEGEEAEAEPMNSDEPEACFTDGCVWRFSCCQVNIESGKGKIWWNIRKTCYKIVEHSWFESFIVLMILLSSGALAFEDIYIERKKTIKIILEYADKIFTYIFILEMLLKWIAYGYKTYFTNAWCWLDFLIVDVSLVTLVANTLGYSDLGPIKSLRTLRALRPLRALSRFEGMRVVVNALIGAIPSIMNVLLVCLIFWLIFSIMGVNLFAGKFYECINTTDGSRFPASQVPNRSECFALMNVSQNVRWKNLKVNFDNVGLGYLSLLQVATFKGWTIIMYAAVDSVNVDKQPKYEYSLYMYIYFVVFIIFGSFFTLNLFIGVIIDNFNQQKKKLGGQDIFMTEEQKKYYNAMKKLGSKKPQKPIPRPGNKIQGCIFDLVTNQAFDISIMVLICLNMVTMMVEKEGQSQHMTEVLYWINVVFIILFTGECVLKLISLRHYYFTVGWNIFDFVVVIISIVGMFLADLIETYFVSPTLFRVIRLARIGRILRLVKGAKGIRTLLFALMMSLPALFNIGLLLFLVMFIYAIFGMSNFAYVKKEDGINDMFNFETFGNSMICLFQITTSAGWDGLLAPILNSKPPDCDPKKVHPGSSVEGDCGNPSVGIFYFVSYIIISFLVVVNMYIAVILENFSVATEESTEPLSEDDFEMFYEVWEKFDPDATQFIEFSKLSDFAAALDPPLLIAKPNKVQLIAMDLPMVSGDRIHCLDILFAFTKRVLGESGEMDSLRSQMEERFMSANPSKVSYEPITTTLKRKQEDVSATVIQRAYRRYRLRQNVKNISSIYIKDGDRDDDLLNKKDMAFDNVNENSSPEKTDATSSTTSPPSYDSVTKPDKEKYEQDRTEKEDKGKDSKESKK
row,SMILES,IC50
1,CNC(=O)C1CCC[N+](CC(=O)Nc2c(C)cccc2C(=O)OC)(Cc2ccccc2)C1 (mixture of isomers) [Compound 31],> 30 µM
2,COC(=O)c1cccc(C)c1NC(=O)C[N+]1(Cc2ccccc2)CCCCC1.[Br-] [Compound 3],> 30 µM
3,COC(=O)c1cccc(C)c1NC(=O)C[N+]1(Cc2ccccc2)CCCC1 [Compound 5],> 30 µM
4,CC[N+]1(CC(=O)Nc2c(C)cccc2C(=O)OC)CCCC(C(=O)OCC(C)C)C1.[I-] (centres unmarked) [Compound 23],> 30 µM
5,COC(=O)c1cccc(C)c1NC(=O)C[N+]1(Cc2ccccc2)CCCC(C(N)=O)C1.[Br-] (centres unmarked) [Compound 30],> 30 µM
6,COC(=O)c1cccc(C)c1NC(=O)C[N+]1(Cc2ccccc2)CCCC(C(=O)NC(C)C)C1.[Br-] (centres unmarked) [Compound 32],> 30 µM
7,COC(=O)c1cccc(C)c1NC(=O)C[N+]1(Cc2ccccc2)CCCC(C(=O)NCC(C)C)C1.[Br-] (centres unmarked) [Compound 36],10 to 30 µM
8,CC[N+]1(CC(=O)Nc2c(C)cccc2C(=O)OC)CCCC(C(=O)N2CCCCC2)C1.[I-] (centres unmarked) [Compound 45],> 30 µM
9,CC[N+]1(CC(=O)Nc2c(C)cccc2C(=O)OC)CCCC(C(N)=O)C1.[I-] (centres unmarked) [Compound 55],> 30 µM
10,CCC(C(=O)Nc1c(C)cccc1C(=O)OC)[N+]1(Cc2ccccc2)CCCCC1 (centres unmarked) [Compound 57],> 30 µM
11,COC(=O)c1cccc(C)c1NC(=O)C[n+]1cccc(-c2ccccc2)c1.[Br-] [Compound 66],10 to 30 µM
12,COC(=O)c1cccc(C)c1NC(=O)C[n+]1cccn1C1CCCCC1.[Br-] [Compound 69],> 30 µM

# The next lines start with the values.
row,IC50,SMILES
1,1 to 10 µM,CCOC(=O)C1CCC[N+](CC(=O)Nc2c(C)cccc2C(=O)OC)(Cc2ccccc2)C1 (mixture of isomers) [Compound 16]
2,10 to 30 µM,CCCNC(=O)C1CCC[N+](CC(=O)Nc2c(C)cccc2C(=O)OC)(Cc2ccccc2)C1 (mixture of isomers) [Compound 28]
3,10 to 30 µM,CC[N+]1(CC(=O)Nc2c(C)cccc2C(=O)OC)CCCC(c2ccccc2)C1 (mixture of isomers) [Compound 65]
4,1 to 10 µM,COC(=O)c1cccc(C)c1NC(=O)C[N+]1(Cc2ccccc2)CCCCCC1 [Compound 1]
5,1 to 10 µM,CCOC(=O)c1cccc(C)c1NC(=O)C[N+]1(Cc2ccccc2)CCCCCC1 [Compound 2]
6,1 to 10 µM,CCOC(=O)c1cccc(C)c1NC(=O)C[N+]1(Cc2ccccc2)CCCCC1.[Br-] [Compound 4]
7,1 to 10 µM,Cc1cccc(C(=O)OC(C)C)c1NC(=O)C[N+]1(Cc2ccccc2)CCCCCC1.[Br-] [Compound 7]
8,1 to 10 µM,CCOC(=O)c1cccc(C)c1NC(=O)C[N+]1(Cc2ccccc2)CCCC1.[Br-] [Compound 9]
9,1 to 10 µM,CCOC(=O)C[N+]1(CC(=O)Nc2c(C)cccc2C(=O)OC)CCCC(c2ccccc2)C1.O=C([O-])C(F)(F)F (centres unmarked) [Compound 63]
10,1 to 10 µM,Cc1cccc(C(=O)OC(C)(C)C)c1NC(=O)C[n+]1cccc(-c2ccccc2)c1.[Br-] [Compound 71]
11,1 to 10 µM,Cc1cccc(C(=O)OC(C)(C)C)c1NC(=O)C[n+]1cccn1C1CCCCC1.[Br-] [Compound 72]
